Patent publication US20110070232A1, “Combination Therapy with an Antitumor Alkaloid” (Pharma Mar, S.A., priority 2008, published 2011)
Values after ≈ are worked out from the molar mass of the structure shown. Read-outs that look alike come from different tables or passages of the source.

Tests used:
MRI-H-254 tumors = type: in vivo, mice
Method: Female athymic nude mice (Harlan Sprague Dawley, Madison, Wis.) were utilized for all experiments. Animals were housed in ventilated rack caging with food and water ad libitum. The mice were acclimated for at least 5 days prior to tumor implantation with tumor fragments.
Treatments were initiated on DPI 20.
(§1) Tumor size measurements were recorded twice weekly from the treatment initiation until the termination of the study.
(§2) Mean, standard deviation and standard error of the mean were determined for tumor volume for all animal groups at all assessments. Student's t test was performed on tumor volumes at each measurement day, including at the end of the study, to determine whether there were any statistically significant differences between combination treatment groups and single monotherapy treatment groups.

Hs746T tumors = type: in vivo, mice; conditions: for % T/C on day 14 / % T/C on day 19 / % T/C on day 22 / % T/C on day 26 / % T/C on day 29 / % T/C on day 32 / % T/C on day 39: PM00104 0.90 IV, DPI 14, 21, 28
Method: Female athymic nude mice (Harlan Sprague Dawley, Madison, Wis.) were utilized for all experiments. Animals were housed in ventilated rack caging with food and water ad libitum. The mice were acclimated for at least 5 days prior to tumor implantation with a tumor cell suspension.
The tumor model used in these studies was Hs746T cell line, which was obtained from the ATCC (Manassas, Va.).
Treatments were initiated on DPI 14.
as §1, §2

[1] = system: HGC-27 human gastric carcinoma cell line; assay: IC50 determination, MTS assay, 72 h (Example 1); type: cell-based; conditions: 72 hours of drug exposure
Method: (§3) The human gastric carcinoma cell lines selected for this assay were the following: Hs746T, HGC-27, and AGS cell lines. Hs746T and AGS cell lines were grown in Dulbecco's modified Eagle's medium (DMEM) supplemented with 10% Fetal Bovine Serum (FBS), 1.5 g/L sodium bicarbonate, 4.5 g/L glucose and 4 mM L-glutamine. HGC-27 cell line was grown in Iscove's modified Dulbecco's medium (IMDM) supplemented with 20% FBS and 2 mM L-glutamine.
(§4) The day before plating, the cells were fed with fresh, complete growth media. On the harvest (plating) day, cells were counted by Trypan Blue exclusion staining method.
(§5) Cells were harvested and seeded in 96 well microtiter plates at 10,000 cells density in 150 μL of media and incubated for 24 hours to allow the cells to attach before drug addition. To collect reference data, the MTS assay was done on untreated cells at time 0 (after incubation of cells for 24 hours).
(§6) The cytotoxic effect was measured by the MTS Assay (Tetrazolium), which is a colorimetric method for determining the number of viable cells. After the incubation period (24 hours for the Day 0 plate and 72 hours for the Test and Control plates), 25 μL of MTS+PMS solution was added to each microtiter well and incubated for 4 hours at 37° C. Plates were then removed from incubator and placed on plate shaker for 5 minutes (covered with aluminum foil for protection from light). Optical densities were read at 490 nm on spectrophotometer plate reader.
(§7) IC50 values were calculated from an average of two to four assays for each of the test agents.

[2] = system: AGS human gastric carcinoma cell line; assay: IC50 determination, MTS assay, 72 h (Example 1); type: cell-based; conditions: 72 hours of drug exposure
Method: as §3, §4, §5, §6, §7

[3] = system: Hs746T human gastric carcinoma cell line; assay: IC50 determination, MTS assay, 72 h (Example 1); type: cell-based; conditions: 72 hours of drug exposure
Method: as §3, §4, §5, §6, §7

[4] = PM00104 0.90 IV, docetaxel 8 IP, oxaliplatin 4 IP mg/kg/day (G4, G6, G8, G10), DPI 20, 27, 34
[5] = PM00104 0.90 IV, docetaxel 16 IP, oxaliplatin 8 IP mg/kg/day (G2, G3, G5, G7, G9), DPI 20, 27, 34
[6] = docetaxel 8 IP, oxaliplatin 4 IP mg/kg/day (G4, G6, G8, G10)
[7] = docetaxel 16 IP, oxaliplatin 8 IP mg/kg/day (G2, G3, G5, G7, G9)

CC(=O)O[C@@]12CO[C@@H]1C[C@H](O)[C@@]1(C)C(=O)[C@H](O)C3=C(C)[C@@H](OC(=O)[C@H](O)[C@@H](NC(=O)OC(C)(C)C)c4ccccc4)C[C@@](O)([C@@H](OC(=O)c4ccccc4)[C@H]21)C3(C)C [Docetaxel, docetaxel] was tested, and the “% T/C on day 20” value (MRI-H-254 tumors; [4]) was 97.7%, the “% T/C on day 23” value (MRI-H-254 tumors; [4]) was 122.8% and the “% T/C on day 27” value (MRI-H-254 tumors; [4]) was 93.1%. For the same molecule, the “% T/C on day 30” value (MRI-H-254 tumors; [4]) was 102.6%, the “% T/C on day 33” value (MRI-H-254 tumors; [4]) was 114.1% and the “% T/C on day 36” value (MRI-H-254 tumors; [4]) was 119.2%. The “% T/C on day 40” value (MRI-H-254 tumors; [4]) was 120.1%, the “% T/C on day 48” value (MRI-H-254 tumors; [4]) was 97.3% and the “% T/C on day 20” value (MRI-H-254 tumors; [5]) was 101.4%. For the same molecule, the “% T/C on day 23” value (MRI-H-254 tumors; [5]) was 115.4%, the “% T/C on day 27” value (MRI-H-254 tumors; [5]) was 90.9% and the “% T/C on day 33” value (MRI-H-254 tumors; [5]) was 115.8%. The “% T/C on day 36” value (MRI-H-254 tumors; [5]) was 108.4%, the “% T/C on day 40” value (MRI-H-254 tumors; [5]) was 100.4% and the “% T/C on day 48” value (MRI-H-254 tumors; [5]) was 76.7%. For the same molecule, the “% Inhibition” value (MRI-H-254 tumors; day 20, PM00104 0.9 and docetaxel 8 mg/kg/day) was 2.3%, the “% Inhibition” value (MRI-H-254 tumors; day 20, PM00104 0.9 and docetaxel 16 mg/kg/day) was −1.4% and the “% Inhibition” value (MRI-H-254 tumors; day 23, PM00104 0.9 and docetaxel 8 mg/kg/day) was −22.8%. For the same molecule, the “% Inhibition” value (MRI-H-254 tumors; day 23, PM00104 0.9 and docetaxel 16 mg/kg/day) was −15.4%, the “% Inhibition” value (MRI-H-254 tumors; day 27, PM00104 0.9 and docetaxel 8 mg/kg/day) was 6.9% and the “% Inhibition” value (MRI-H-254 tumors; day 27, PM00104 0.9 and docetaxel 16 mg/kg/day) was 9.1%. For the same molecule, the “% Inhibition” value (MRI-H-254 tumors; day 30, PM00104 0.9 and docetaxel 8 mg/kg/day) was −2.6%, the “% Inhibition” value (MRI-H-254 tumors; day 30, PM00104 0.9 and docetaxel 16 mg/kg/day) was −17.1% and the “% Inhibition” value (MRI-H-254 tumors; day 33, PM00104 0.9 and docetaxel 8 mg/kg/day) was −14.1%. The “% Inhibition” value (MRI-H-254 tumors; day 33, PM00104 0.9 and docetaxel 16 mg/kg/day) was −15.8%, the “% Inhibition” value (MRI-H-254 tumors; day 36, PM00104 0.9 and docetaxel 8 mg/kg/day) was −19.2% and the “% Inhibition” value (MRI-H-254 tumors; day 36, PM00104 0.9 and docetaxel 16 mg/kg/day) was −8.4%. For the same molecule, the “% Inhibition” value (MRI-H-254 tumors; day 40, PM00104 0.9 and docetaxel 8 mg/kg/day) was −20.1%, the “% Inhibition” value (MRI-H-254 tumors; day 40, PM00104 0.9 and docetaxel 16 mg/kg/day) was −0.4% and the “% Inhibition” value (MRI-H-254 tumors; day 48, PM00104 0.9 and docetaxel 8 mg/kg/day) was 2.7%. For the same molecule, the “% Inhibition” value (MRI-H-254 tumors; day 48, PM00104 0.9 and docetaxel 16 mg/kg/day) was 23.3%, the “% T/C on day 14” value (Hs746T tumors; [6]) was 100.8% and the “% T/C on day 19” value (Hs746T tumors; [6]) was 49.0%. The “% T/C on day 22” value (Hs746T tumors; [6]) was 41.6%, the “% T/C on day 26” value (Hs746T tumors; [6]) was 32.5% and the “% T/C on day 29” value (Hs746T tumors; [6]) was 29.4%. The “% T/C on day 32” value (Hs746T tumors; [6]) was 39.4%, the “% T/C on day 39” value (Hs746T tumors; [6]) was 55.1% and the “% T/C on day 14” value (Hs746T tumors; [7]) was 100.3%. The “% T/C on day 19” value (Hs746T tumors; [7]) was 33.6%, the “% T/C on day 22” value (Hs746T tumors; [7]) was 21.3% and the “% T/C on day 26” value (Hs746T tumors; [7]) was 7.2%. The “% T/C on day 29” value (Hs746T tumors; [7]) was 3.5%, the “% T/C on day 32” value (Hs746T tumors; [7]) was 1.5% and the “% T/C on day 39” value (Hs746T tumors; [7]) was −0.6%. The “% Inhibition” value (Hs746T tumors; day 14, PM00104 0.9 and docetaxel 8 mg/kg/day) was −0.8%, the “% Inhibition” value (Hs746T tumors; day 14, PM00104 0.9 and docetaxel 16 mg/kg/day) was −0.3% and the “% Inhibition” value (Hs746T tumors; day 19, PM00104 0.9 and docetaxel 8 mg/kg/day) was 51.0%. The “% Inhibition” value (Hs746T tumors; day 19, PM00104 0.9 and docetaxel 16 mg/kg/day) was 66.4%, the “% Inhibition” value (Hs746T tumors; day 22, PM00104 0.9 and docetaxel 8 mg/kg/day) was 58.4% and the “% Inhibition” value (Hs746T tumors; day 22, PM00104 0.9 and docetaxel 16 mg/kg/day) was 78.7%. For the same molecule, the “% Inhibition” value (Hs746T tumors; day 26, PM00104 0.9 and docetaxel 8 mg/kg/day) was 67.5%, the “% Inhibition” value (Hs746T tumors; day 26, PM00104 0.9 and docetaxel 16 mg/kg/day) was 92.8% and the “% Inhibition” value (Hs746T tumors; day 29, PM00104 0.9 and docetaxel 8 mg/kg/day) was 70.6%. For the same molecule, the “% Inhibition” value (Hs746T tumors; day 29, PM00104 0.9 and docetaxel 16 mg/kg/day) was 96.5%, the “% Inhibition” value (Hs746T tumors; day 32, PM00104 0.9 and docetaxel 8 mg/kg/day) was 60.6% and the “% Inhibition” value (Hs746T tumors; day 32, PM00104 0.9 and docetaxel 16 mg/kg/day) was 98.5%. For the same molecule, the “% Inhibition” value (Hs746T tumors; day 39, PM00104 0.9 and docetaxel 8 mg/kg/day) was 44.9%, the “% Inhibition” value (Hs746T tumors; day 39, PM00104 0.9 and docetaxel 16 mg/kg/day) was 100.6% and the IC50 ([1]; Homo sapiens, read-out: IC50) was 6.54 µg/mL (≈ 8.1 µM). For the same molecule, the IC50 ([2]; Homo sapiens, read-out: IC50) was 1.99 µg/mL (≈ 2.46 µM) and the IC50 ([3]; Homo sapiens, read-out: IC50) was 44.2 µg/mL (≈ 54.7 µM).

Work on CCc1c2c(nc3ccc(O)cc13)-c1cc3c(c(=O)n1C2)COC(=O)[C@]3(O)CC [SN38, 7-ethyl-10-hydroxycamptothecin] yielded an IC50 [1] of 0.246 µg/mL (≈ 0.627 µM), an IC50 [2] of 0.00549 µg/mL (≈ 0.014 µM) and an IC50 [3] of 0.0582 µg/mL (≈ 0.148 µM).
